Test results: US12544359B2, “1-aminosulfonyl-2-carboxypyrrole derivatives as metallo-beta-lactamase inhibitors” (INFEX Therapeutics Limited, priority 2019, dated 2026)
Structures can show the parent of a compound that is named as a salt.

Columns and labels:
[1] = test system: K. pneumoniae ATCC BAA2146 NDM-1; assay: Meropenem combination MIC; format: cell-based; conditions: meropenem only (baseline)
Experimental: (§1) MICs were determined by exposing bacteria to serial dilutions of antibacterial agents in MHB-II (cation-adjusted Mueller-Hinton Broth pH 7.4) according to Clinical and Laboratory Standards Institute (CLSI) broth microdilution guidelines (Cockerill et al., 2012).
(§2) Combination MIC were performed as described for MIC determinations with the addition of 4 mg/L test article to MHB-II.
(§3) The compounds of the invention were tested against a primary panel of bacterial strains, columns I-V of Table 2. As appropriate, compounds considered suitable for further investigation were tested against a secondary panel of bacterial strains, columns VI and VII of Table 2.

[2] = test system: K. pneumoniae NCTC13439 VIM-1; assay: Meropenem combination MIC; format: cell-based; conditions: meropenem only (baseline)
Experimental: as §1, §2, §3

[3] = test system: A. baumannii SG698 NDM-1; assay: Meropenem combination MIC; format: cell-based; conditions: meropenem only (baseline)
Experimental: as §1, §2, §3

[4] = test system: K. pneumoniae NCTC13440 VIM-1; assay: Meropenem combination MIC; format: cell-based; conditions: meropenem only (baseline)
Experimental: as §1, §2, §3

[5] = test system: E. coli ATCCBAA-2452 NDM-1; assay: Meropenem combination MIC; format: cell-based; conditions: meropenem only (baseline)
Experimental: as §1, §2, §3

[6] = test system: E. coli NCTC13476 IMP; assay: Meropenem combination MIC; format: cell-based; conditions: meropenem only (baseline)
Experimental: as §1, §2, §3

[7] = molecular target: NDM-1 (Klebsiella pneumoniae, UniProt C7C422); assay: metallo-β-lactamase inhibition assay (nitrocefin); format: biochemical; conditions: 1.5 nM NDM-1, 100 μM nitrocefin, 37° C., pH 7.5
Experimental: Compounds of the invention were tested in a metallo-β-lactamase inhibition assay to investigate mechanism of action of the compounds. Results are reported as the concentration of test article required to inhibit enzyme activity by 50% (IC50).
Inhibition of metallo-β-lactamase enzyme function was performed at 37° C. in buffer at pH 7.5 (50 mM HEPES, 150 mM NaCl, 0.1 mM ZnSO4, 20 μg/mL PEG4000), containing 1.5 nM NDM-1, 100 μM nitrocefin, and a range of concentrations of compound. Absorbance at 490 nm was measured using a BMG LABTECH FLUOstar Omega microplate reader every minute for 30 minutes. IC50s were determined from the average increase in OD per minute versus the Log 10 concentration of compound using GraphPad Prism.

[8] = Cytotoxicity Assay (CellTiter-Glo); format: cell-based; conditions: human, Hep G2 cells (ATCC HB-8065); 24 h exposure; read-out: HepG2 CC50
Experimental: Cytotoxicity was evaluated in human Hep G2 cells (ATCC HB-8065) seeded at a density of 2×10^5 cells per well and incubated for 24 h at 37° C., 5% CO2. Cells were exposed to a doubling dilution series of test article. After 24 h exposure, the viability of the cells was determined using CellTiter-Glo® (Promega, WI, USA) according to the manufacturer's instructions. Results are reported as the concentration of test article required to reduce cell viability by 50% (CC50).

[9] = solubility study in saline, identified visually; format: physicochemical; conditions: 2 mg in 40 μL saline (50 mg/mL), visual; free base unless indicated
Experimental: Compounds were also tested in a solubility study. Each sample (2 mg) was weighed into a clear 1.75 mL vial followed by the addition of saline (40 μL, to make up to 50 mg/mL). Unless indicated otherwise, the compounds were tested as the free base. Each resulting mixture was vortexed (if required) and the solubility of each was identified visually.

[10] = test system: Cerep SafetyScreen44 Panel (44 targets); assay: off-target inhibition, Cerep SafetyScreen44 Panel
Experimental: Compounds were also tested for off-target inhibition in a Cerep SafetyScreen44 Panel.

Sequence of NDM-1 (C7C422 whole entry, looked up, species assumed): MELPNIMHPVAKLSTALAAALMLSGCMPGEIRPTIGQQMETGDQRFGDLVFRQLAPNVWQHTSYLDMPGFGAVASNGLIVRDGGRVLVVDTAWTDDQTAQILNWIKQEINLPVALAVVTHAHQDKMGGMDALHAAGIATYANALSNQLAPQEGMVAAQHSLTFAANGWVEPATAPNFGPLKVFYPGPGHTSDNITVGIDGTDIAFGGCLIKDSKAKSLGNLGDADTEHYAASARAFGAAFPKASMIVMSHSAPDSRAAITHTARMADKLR

Question: With C[C@@H](O)[C@H]1C(=O)N2C(C(=O)O)=C(S[C@@H]3CN[C@H](C(=O)N(C)C)C3)[C@H](C)[C@H]12 [Meropenem, meropenem] as the compound, how does the “Meropenem MIC (μg/mL) III K. pneumoniae ATCC BAA2146 NDM-1” value [1] read?
Answer: 16 µg/mL

Question: And the “Meropenem MIC (μg/mL) VII K. pneumoniae NCTC13439 VIM-1” value [2]?
Answer: 0.5 µg/mL

Question: What about the “Meropenem MIC (μg/mL) IV A. baumannii SG698 NDM-1” value [3] of the same compound?
Answer: 8 µg/mL

Question: What about the “Meropenem MIC (μg/mL) V K. pneumoniae NCTC13440 VIM-1” value [4] of the same compound?
Answer: 1 µg/mL

Question: What about the “Meropenem MIC (μg/mL) I E. coli ATCCBAA-2452 NDM-1” value [5] of the same compound?
Answer: 1 µg/mL

Question: What about the “Meropenem MIC (μg/mL) II E. coli NCTC13476 IMP” value [6] of the same compound?
Answer: 4 µg/mL

Question: What does the source list for CNCCN(C)C(=O)c1ccc(-c2ccn(S(N)(=O)=O)c2C(=O)O)cc1 [Example 25, 3-[4-[Methyl-[2-(methylamino)ethyl]carbamoyl]phenyl]-1-sulfamoyl-pyrrole-2-carboxylic acid]?
Answer: IC50 [7]: 319 nM; CC50 at 24 h [8]: > 256 µg/mL; Solubility [9]: Soluble; Number of targets ≥50% inhibition at 100 μM [10]: 0

Question: For C[C@H](N)C(=O)N1CCC(c2ccn(S(N)(=O)=O)c2C(=O)O)CC1 [Example 69, 3-[1-[(2S)-2-Aminopropanoyl]-4-piperidyl]-1-sulfamoyl-pyrrole-2-carboxylic acid], which IC50 [7] is on record?
Answer: 1480 nM

Question: What about the CC50 at 24 h [8] of the same compound?
Answer: > 256 µg/mL

Question: And the Solubility [9]?
Answer: Soluble

Question: And the “Number of targets ≥50% inhibition at 100 μM” value [10]?
Answer: 0

Question: For NS(=O)(=O)n1ccc(-c2ccc(C(=O)NCCN3CCNC3=O)cc2)c1C(=O)O [Example 17, 3-[4-[2-(2-Oxoimidazolidin-1-yl)ethylcarbamoyl]phenyl]-1-sulfamoyl-pyrrole-2-carboxylic acid, ammonium salt], which IC50 [7] is on record?
Answer: 394 nM

Question: And the CC50 at 24 h [8]?
Answer: > 256 µg/mL

Question: What does the source list for NS(=O)(=O)n1ccc(C2CCN(C(=O)C3CNC3)CC2)c1C(=O)O [Example 74, 3-[1-(Azetidine-3-carbonyl)-4-piperidyl]-1-sulfamoyl-pyrrole-2-carboxylic acid]?
Answer: IC50 [7]: 1550 nM; CC50 at 24 h [8]: > 256 µg/mL

Question: Which IC50 [7] does the source give for CNCCN(C)C(=O)C1CCC(c2ccn(S(N)(=O)=O)c2C(=O)O)CC1 (stereo not drawn) [Example 87, 3-[4-[Methyl-[2-(methylamino)ethyl]carbamoyl]cyclohexyl]-1-sulfamoyl-pyrrole-2-carboxylic acid] here?
Answer: 248 nM

Question: And the CC50 at 24 h [8]?
Answer: > 256 µg/mL

Question: For CC(=O)NCCNC(=O)c1ccc(-c2ccn(S(N)(=O)=O)c2C(=O)O)cc1 [Example 10, 3-[4-(2-Acetamidoethyl-carbamoyl)phenyl]-1-sulfamoyl-pyrrole-2-carboxylic acid], which IC50 [7] is on record?
Answer: 374 nM

Question: What about the CC50 at 24 h [8] of the same compound?
Answer: > 256 µg/mL

Question: Which IC50 [7] does the source give for NS(=O)(=O)n1ccc(-c2ccc(C(=O)NCC(=O)O)cc2)c1C(=O)O [Example 7, 3-[4-(Carboxymethyl-carbamoyl)phenyl]-1-sulfamoyl-pyrrole-2-carboxylic acid] here?
Answer: 650 nM

Question: What about the CC50 at 24 h [8] of the same compound?
Answer: > 256 µg/mL
